Assay results as given in ChEMBL document CHEMBL1143548, “Synthesis and evaluation of potential inhibitors of eIF4E cap binding to 7-methyl GTP” (Bioorg Med Chem Lett, 2005).

The compounds below were run against Eukaryotic translation initiation factor 4E (Homo sapiens, UniProt P06730) (assay: Inhibitory concentration against 7-methyl-GTP binding to eukaryotic translation initiation factor 4E).
Sequence of Eukaryotic translation initiation factor 4E (P06730 whole entry): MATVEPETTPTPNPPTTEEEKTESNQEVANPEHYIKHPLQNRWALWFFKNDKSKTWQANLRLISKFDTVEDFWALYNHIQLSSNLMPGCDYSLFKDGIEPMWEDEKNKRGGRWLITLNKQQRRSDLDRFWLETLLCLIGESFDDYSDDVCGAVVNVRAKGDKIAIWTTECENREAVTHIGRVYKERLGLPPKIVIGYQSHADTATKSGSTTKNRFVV

Row | Structure (SMILES) | IC50 [µM]
1 | C[n+]1cn([C@@H]2O[C@H](CO)[C@@H](O)[C@H]2O)c2nc(N)nc([S-])c21 | > 400
2 | Cn1cnc2c(c1=O)[n+](C)cn2[C@@H]1O[C@H](CO)[C@@H](O)[C@H]1O | > 400
3 | Nc1nc2c(c(=O)[nH]1)[n+](Cc1ccccc1)cn2[C@@H]1O[C@H](CO[PH](=O)[O-])[C@@H](O)[C@H]1O | 200
4 | C[n+]1cn([C@H]2CC(O)[C@@H](COP(=O)(O)OP(=O)([O-])OP(=O)(O)O)O2)c2nc(N)[nH]c(=O)c21 (single isomer, unassigned) | 4
5 | CNc1nc2c(ncn2[C@@H]2O[C@H](CO)C(O)[C@H]2O)c(=O)[nH]1 (single isomer, unassigned) | > 400
6 | C=CC[n+]1cn([C@@H]2O[C@H](COP(=O)([O-])O)C(O)[C@H]2O)c2nc(N)[nH]c(=O)c21 (single isomer, unassigned) | 220
7 | CN(C)c1nc2c(ccn2[C@@H]2O[C@H](CO)C(O)[C@H]2O)c(=O)[nH]1 (single isomer, unassigned) | > 400
8 | C[n+]1cn([C@@H]2O[C@H](CO)C(O)[C@H]2O)c2nc(N)[nH]c(=O)c21 (single isomer, unassigned) | > 400
9 | CC[n+]1cn([C@@H]2O[C@H](COP(=O)([O-])O)C(O)[C@H]2O)c2nc(N)[nH]c(=O)c21 (single isomer, unassigned) | 100
10 | Cc1ccc(SNc2nc3c(ncn3[C@@H]3O[C@H](CO)C(O)[C@H]3O)c(=O)[nH]2)cc1 (single isomer, unassigned) | > 400
11 | Nc1nc2c(ncn2[C@@H]2O[C@H](CO[PH](=O)O)C(O)[C@H]2O)c(=O)[nH]1 (single isomer, unassigned) | 130
